Consider three substances from paper PMC9495826, “Membranolytic Mechanism of Amphiphilic Antimicrobial β-Stranded [KL]n Peptides” (Biomedicines, 2022).

Where two headings read alike, the source gives them in different places. No end group written: not given here.

In data set [1] the test system is erythrocytes. Description: Hemolysis assay. Particulars: for Hemolysis HC50 (concentration of peptide giving 50% hemolysis): 20 h. The data set is classed as cell-based.
Data set [2] deals with four bacterial strains. Description: MIC assay, overall statement for the four strains. To be noted: modified MIC assay. The data set is classed as cell-based, E. coli, E. helveticus, B. subtilis, S. xylosus. The method, then: (§1) The antimicrobial activity of the KL peptides was determined with a MIC assay. Peptide activity was tested against Gram-negative Escherichia coli (DSM 1116) and Enterobacter helveticus (DSM 18390) and against Gram-positive Bacillus subtilis (DSM 347) and Staphylococcus xylosus (DSM 20287) as previously reported. Our standard MIC assay was modified to avoid unnecessary exposure of peptides to the phosphate-containing growth medium, which was previously found to affect the results due to phosphate-induced aggregation of peptides. Details can be found in the Supplementary Materials.
The activity of KL and LK peptides against bacteria was examined using a MIC assay. […] We have previously shown that KL peptides, especially the longer ones, aggregate vigorously in the presence of phosphate ions. […] Therefore, here we used a modified MIC assay that was developed in our previous study, as described in the Methods section. […]
Antimicrobial activity was measured by a minimal inhibitory concentration (MIC) assay, carried out with Gram-positive Bacillus subtilis (DSM 347) and Staphylococcus xylosus (DSM 20287) and with Gram-negative Escherichia coli (DSM 1116) and Enterobacter helvet-icus (DSM 18390). […]
gregate stronlgy in contact with the phosphate containing growth medium. […] The MIC value was determined visually as the lowest peptide concentration inhibiting bacterial growth. […]

For data set [3], the system named is four bacterial strains. Particulars: earlier study; ref [15]; cited from earlier work. An excerpt: (§2) Many natural and man-made AMPs are cationic and fold into simple amphiphilic α-helices. Much fewer examples exist of another fundamental type of secondary structure, namely amphiphilic β-strands. A classic model sequence, [KIGAKI]3-NH2, had been designed from alternating polar and hydrophobic side chains. Recently, we presented an even simpler group of so-called KL peptides, consisting of the alternating (lysine-leucine) dipeptide repeat: [KL]n-NH2. Recently, four KLx peptides of different lengths (x = number of residues, x = 2n) with 6–18 amino acids were compared in terms of ...

In data set [4] the test system is Bacillus subtilis (DSM 347). The data set is classed as cell-based. Particulars: DSM 347, 20 h. The method, then: as §1
(§3) The activity of KL and LK peptides against bacteria was examined using a MIC assay. […] We have previously shown that KL peptides, especially the longer ones, aggregate vigorously in the presence of phosphate ions. […] Therefore, here we used a modified MIC assay that was developed in our previous study, as described in the Methods section. In this approach, a two-fold dilution series was first prepared with peptides dissolved in water, and only thereafter were the bacteria in the medium added so that the peptides were simultaneously exposed to bacteria and phosphate-containing medium.
(§4) 1.3 MIC (minimum inhibitory concentration) assay
(§5) Antimicrobial activity was measured by a minimal inhibitory concentration (MIC) assay, carried out with Gram-positive Bacillus subtilis (DSM 347) and Staphylococcus xylosus (DSM 20287) and with Gram-negative Escherichia coli (DSM 1116) and Enterobacter helvet-icus (DSM 18390). Bacteria were grown in Müller-Hinton medium at 37°C overnight. Bac-terial solutions with OD550 = 0.2 was further diluted 1:100 for Gram-positive and 1:1000 for Gram-negative bacteria to get a concentration of […] colony forming units (CFU)/mL. Mi-crotiter plates (96 wells of 100 μL) were filled peptide solution to obtain serial 2-fold dilu-tion series of peptides. 50 µL of pure water was first added to each well. To the first well 50 µL peptide solution was added, after mixing 50 µL of this was transferred to the second well and so on. After all plates were prepared, 50 µL bacterial solution in double-concen-tration MHM was added to the wells (except for the final row of each plate) to give a final concentration of 5 × 10^5 CFU/mL in the wells. Thus, peptides got in contact with phosphate and bacteria simultaneously. […]
(§6) gregate stronlgy in contact with the phosphate containing growth medium. The two final rows of each plate remained without peptide, so that the penultimate data point served as the positive co ntrol (no peptide), and the final one as the negative control (not inoculated). The plates were incubated at 37°C for 20 h, and cell viability was probed by addition of 20 µL 0.2 mg/mL resazurin and incubation at 37°C for 2 h. The MIC value was determined visually as the lowest peptide concentration inhibiting bacterial growth. […]
(§7) Unencapsulated dye was removed by gel filtration using spin columns filled with Sephacryl 100-HR (Sigma-Aldrich, Taufkirchen, Germany), and equilibrated with an elu-tion buffer (150 mM NaCl, 10 mM HEPES, pH 7.5), which balances the internal vesicle

Data set [5] has as its system Enterobacter helveticus (DSM 18390). The data set is classed as cell-based. Particulars: DSM 18390, 20 h. The procedure: as §1, §3, §4, §5, §6, §7
Data set [6] has as its system Escherichia coli (DSM 1116). The data set is classed as cell-based. Particulars: DSM 1116, 20 h. The method, then:
as §1, §3, §4, §5, §6, §7

For data set [7], the system named is Staphylococcus xylosus (DSM 20287). The data set is classed as cell-based. Particulars: DSM 20287, 20 h. The method, then: as §1, §3, §4, §5, §6, §7
For data set [8], the system named is erythrocytes. Particulars: cited from earlier work.
Text: as §2

As to KLKLKLKLKL-NH2 [KL10], in data set [1], the “Hemolytic activity (in words)” value was “considerably more hemolytic than LK10” and the “Hemolysis HC50 (concentration of peptide giving 50% hemolysis)” value is recorded as 47 µg/mL. For the same substance, the “Antimicrobial activity (in words)” value in data set [2] is on record as “highest activity”. Besides, the “Antimicrobial effect (in words)” value in data set [3] is reported as “better antimicrobial effect than KL6, KL14 or KL18”. In addition, the “MIC B. subtilis” value in data set [4] came to 2 µg/mL. Further, the “MIC E. helveticus” value in data set [5] is reported as 2 µg/mL. In data set [6], the “MIC E. coli” value is 4 µg/mL. Besides, the “MIC S. xylosus” value in data set [7] is given as 2 µg/mL.
For the substance KLKLKLKLKLKLKL-NH2 [KL14], the “Hemolysis HC50 (concentration of peptide giving 50% hemolysis)” value in data set [1] turned out to be 1 µg/mL. Besides, the “Hemolytic activity (in words)” value in data set [8] is recorded as “highly hemolytic”. For the same substance, in data set [4], the “MIC B. subtilis” value amounted to 4 µg/mL. In addition, the “MIC E. helveticus” value in data set [5] came to 4 µg/mL. Also, the “MIC E. coli” value in data set [6] turned out to be 8 µg/mL. Besides, the “MIC S. xylosus” value in data set [7] is listed as 4 µg/mL.
KLKLKLKLKLKLKLKLKL-NH2 [KL18]: in data set [1], the “Hemolysis HC50 (concentration of peptide giving 50% hemolysis)” value is on record as 1 µg/mL. The “Hemolytic activity (in words)” value in data set [8] is given as “highly hemolytic”. In data set [4], the “MIC B. subtilis” value stood at 32 µg/mL. Moreover, in data set [5], the “MIC E. helveticus” value is on record as 16 µg/mL. In addition, the “MIC E. coli” value in data set [6] is listed as 32 µg/mL. For the same substance, the “MIC S. xylosus” value in data set [7] was 8 µg/mL.
